From US20050255096A1, “Combination treatment for acute myocardial infarction” (priority 2002, published 2005)

Test system: patients with acute myocardial infarction
Test: Effect of the combination on the mortality of the patients with acute myocardial infarction (180 day mortality)
Format: in vivo
Conditions: 6-hour infusion of levosimendan, bolus 6, 12 or 24 μg/kg then 0.1, 0.2 or 0.4 μg/kg/min
Procedure: Effect of the combination on the mortality of the patients with acute myocardial infarction
Patients who had suffered from acute myocardial infarction within five days received placebo or a 6-hour infusion of levosimendan using a bolus of 6, 12 or 24 μg/kg and subsequent infusion of 0.1, 0.2 or 0.4 μg/kg/min. Patients were divided according to whether they had received thrombolytic therapy or not. The 180 day mortality was measured. It can be seen that the combination provided synergistic reduction in the mortality of patients with acute myocardial infarction.

[1] = patients who did not receive thrombolytic, N = 331
[2] = patients who received thrombolytic, N = 70

CC1CC(=O)NN=C1c1ccc(NN=C(C#N)C#N)cc1 (single isomer, unassigned; (-)) [Levosimendan, (−)-enantiomer of [[4-(1,4,5,6-tetrahydro-4-methyl-6-oxo-3-pyridazinyl)phenyl]hydrazono]propanedinitrile]
180-day mortality, Event (%) [1]: 24.8% | 180-day mortality, Event n [1]: 82 | 180-day mortality, Event (%) [2]: 12.8% | 180-day mortality, Event n [2]: 9
